What was measured:
Plk3 PBD (PBD3) = target: T1, Plk3 PBD (PBD3) (Homo sapiens, UniProt Q9H4B4); assay: FP-based inhibition assay, PBD3; format: binding; details: bacterially expressed purified PBD, FITC-ligand 15 nM, PBD at EC85
T1 construct: MBP-PBD3-His (335–646) (pKM3359) and its A612F (pKM7981); His (C); made in house; host or cells: bacteria (E. coli)
T1 sequence (Q9H4B4 335-646): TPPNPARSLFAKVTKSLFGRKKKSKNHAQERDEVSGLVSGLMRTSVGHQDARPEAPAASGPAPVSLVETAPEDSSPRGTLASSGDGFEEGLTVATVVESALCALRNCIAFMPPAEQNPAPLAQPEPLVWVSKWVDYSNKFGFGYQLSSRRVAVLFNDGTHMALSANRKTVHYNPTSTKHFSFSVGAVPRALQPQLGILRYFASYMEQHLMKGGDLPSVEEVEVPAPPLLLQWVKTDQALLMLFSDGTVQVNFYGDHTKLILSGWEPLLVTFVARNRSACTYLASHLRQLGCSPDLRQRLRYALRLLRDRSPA
Method: (§1) FP assays were carried out essentially as described previously ([35], [36]). FITC-conjugated ligands (15 nM) were mixed with PBDs at their EC85 concentrations. All the samples were analyzed approximately 30 min after reaction in a 384-well format using the SpectraMax Paradigm multimode microplate detection platform (Molecular Devices). Data were analyzed after carrying out at least three independent experiments using GraphPad Prism software version 8.

PBD1 F559D mutant = target: T2, PBD1 F559D mutant (Homo sapiens, UniProt P53350, F559D); assay: FP-based binding/inhibition assay, PBD1 F559D; details: PBD1 F559D at EC85
T2 construct: constructs expressing PBD1 (residues 345–603) WT (pKM7650), F559D (pKM7878); His; TEV site (N); made in house; host or cells: bacteria (E. coli)
T2 sequence (P53350 345-603 F559D): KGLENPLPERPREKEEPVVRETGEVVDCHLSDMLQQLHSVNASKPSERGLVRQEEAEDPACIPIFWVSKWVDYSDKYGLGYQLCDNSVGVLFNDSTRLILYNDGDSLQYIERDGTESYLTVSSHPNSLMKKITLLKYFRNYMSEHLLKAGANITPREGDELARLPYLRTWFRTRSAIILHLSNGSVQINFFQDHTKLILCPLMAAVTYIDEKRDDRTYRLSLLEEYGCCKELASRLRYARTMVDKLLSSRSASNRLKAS
Method: as §1
Fig. S4. Generation of F559 mutants for in vitro and cell-based assays in Fig. 4. (A) SDS-PAGE showing the proteins used for the FP assays in Fig. 4 A and B. CBB, a Coomassie Brilliant Blue– stained gel. (B) Summary of Kd and EC85 values for PBD1 WT and mutants. The Kd values for PBD1 WT and mutants were determined after extrapolating them from the binding curves as the concentration at which 50% of the FITC-Ahx-DPPLHSpTAI-NH2 are PBD1-bound. The EC85 values indicate the effective concentration of 85% of the maximal concentration calculated for each protein. The FP values were obtained 30 minutes after incubation. For the F559K and F559R mutants, we were not able to determine the EC85 values and therefore used 2 µM of these proteins for the assays in Fig. 4B. N.D., not determined. […]

human His-Plk1 = target: T3, human His-Plk1 (Homo sapiens, UniProt P53350); assay: In vitro Plk1 kinase assay (casein, 32P); format: biochemical; details: casein substrate
T3 construct: His (N); purchased Sino Biological; host or cells: Sf9
T3 sequence (P53350 whole entry): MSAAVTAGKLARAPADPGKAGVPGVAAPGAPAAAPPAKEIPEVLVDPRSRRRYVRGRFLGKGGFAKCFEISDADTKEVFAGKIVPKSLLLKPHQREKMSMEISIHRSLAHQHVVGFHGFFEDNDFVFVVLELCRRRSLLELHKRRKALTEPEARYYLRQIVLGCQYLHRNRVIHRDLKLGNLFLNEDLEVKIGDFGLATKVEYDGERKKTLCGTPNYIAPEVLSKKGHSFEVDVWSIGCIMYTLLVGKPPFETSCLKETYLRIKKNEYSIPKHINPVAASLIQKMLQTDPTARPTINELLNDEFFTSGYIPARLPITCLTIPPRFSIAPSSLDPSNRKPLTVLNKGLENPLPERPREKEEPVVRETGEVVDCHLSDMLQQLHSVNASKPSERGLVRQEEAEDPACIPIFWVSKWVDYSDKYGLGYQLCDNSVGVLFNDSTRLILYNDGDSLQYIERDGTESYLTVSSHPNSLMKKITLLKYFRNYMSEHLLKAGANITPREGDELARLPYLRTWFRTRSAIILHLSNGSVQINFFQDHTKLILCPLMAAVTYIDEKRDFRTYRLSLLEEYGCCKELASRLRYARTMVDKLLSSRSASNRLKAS
Method: Kinase reactions were carried out in two steps. First, Sf9-purified 0.2 µg of human His-Plk1 (Sino Biological) was preincubated in a kinase cocktail [50 mM Tris-Cl (pH 7.5), 10 mM MgCl2, 2 mM dithiothreitol, 2 mM EGTA, and 27 mM p-nitrophenylphosphate] in the presence of either Allopole-A or p-13mer PBIP peptide for 20 min at 25 °C. The samples were then added with 1 µg of dephosphorylated casein (Sigma) and 1.25 µM of ATP (1.25 µCi of [γ^32P] ATP, 1Ci = 37 GBq) and reacted for additional 30 min at 30 °C. The reactions were terminated by the addition of 5× Laemmli SDS sample buffer, separated by 10% SDS-PAGE, and analyzed by autoradiography. To quantify the γ^32P signals, appropriate bands were excised from dried SDS-PAGE gels and analyzed by a liquid scintillation counter (Beckman model LS 6500).

HeLa cells = assay: Time-lapse analysis of double thymidine-released HeLa cells; format: cell-based; details: HeLa released from double-thymidine block, 10 μM added 7 h after release
Method: To carry out time-lapse analysis, HeLa cells were arrested at the G1/S boundary by treating them with 2.5 mM of thymidine for 18 h, releasing them for 9 h, and then treating them again with the same dose of thymidine for another 18 h. The resulting cells were washed with fresh medium, released from the double-thymidine block for 7 h, and then treated with control DMSO or 10 μM of Allopole to examine their effect on cell cycle progression. At the indicated time points, cells were imaged every 30 min using a Keyence BZ-X710 all-in-one microscope.

[1] = system: mGFP-Plk1 WT at centrosomes, U2OS cells; assay: Confocal quantification of Pendo-mGFP-Plk1 WT in U2OS cells (siPlk1); format: cell-based; details: U2OS siPlk1, 8 μM
Method: To corroborate the importance of the F559 residue for Allopole-A binding, U2OS cells expressing endogenous promoter (i.e., Pendo)-controlled mGFP-Plk1 WT or F559D mutant were depleted of endogenous Plk1 by RNAi for 48 h (SI Appendix, Fig. S4C), treated with control DMSO or 8 μM of Allopole for 2 or 16 h, and fixed (SI Appendix, Fig. S4D). Afterward, the level of mGFP fluorescence was quantified using confocal microscopy (Fig. 4 C and D). As expected from the results shown in Fig. 1 C and D, Allopole delocalized mGFP-Plk1 WT from centrosomes within 2 h after treatment, and this effect was sustained for up to 16 h. […] This could be attributable to the fact that unlike PBIP1, which binds to PBD1 through the self-priming and binding mechanism ([49]), Bub1, BubR1, and likely Cdc25C require Cdc2-dependent priming phosphorylation to interact with PBD1 ([42]–[44]). […]
Confocal images of unsaturated fluorescence signals were acquired under the same laser intensity at the 12-bit resolution. Fluorescence intensities for identifiable centrosome and kinetochore signals were quantified after the maximum-intensity projection of z-stacks using the Zeiss ZEN v2.1 software (Carl Zeiss Microscopy, LLC). Data were quantified from three independent experiments.

With `O=c1c2sc(Cl)cc2n2c(=S)[nH]nc2n1CC1CC1` [Allopole-A] the “PBD3 IC50 ± SD” value (Plk3 PBD (PBD3)) was “N. S”, the “Inhibition of FITC-phosphopeptide binding (in words)” value (PBD1 F559D mutant) was “failed to inhibit” and the “Effect on His-Plk1 kinase activity in vitro (in words)” value (human His-Plk1) was “significantly inhibited Plk1 activity”.
`Cn1cnc([N+](=O)[O-])c1Sc1nnc2n(CC3CC3)c(=O)c3sc(Cl)cc3n12` [Allopole] was tested, and the “Mitotic progression (in words)” value (HeLa cells) was “effectively blocked mitotic progression for several hours and induced cell death” and the “Time to delocalization of mGFP-Plk1 WT from centrosomes” value [1] was ≤ 2 h.

— article PMC10629583, “Specific inhibition of an anticancer target, polo-like kinase 1, by allosterically dismantling its mechanism of substrate recognition” (Proceedings of the National Academy of Sciences of the …, 2023)
